# Legend:
# [1] = system: L1210; assay: Inhibitory concentration against growth of L1210 cell line; assay type: functional, cell-based; details: Mus musculus
# [2] = Cell-growth inhibition against SCC25 cell line; assay type: functional, cell-based; details: Homo sapiens, SCC-25
# [3] = Cell-growth inhibition against SCC25/R1 cell line; assay type: functional, cell-based; details: Homo sapiens, SCC-25
# [4] = Cell-growth inhibition against SCC15 cell line; assay type: functional, cell-based; details: Homo sapiens, SCC-15
# [5] = Cell-growth inhibition against SCC15/R1 cell line; assay type: functional, cell-based; details: Homo sapiens, SCC-15
# [6] = system: L1210 ( R81); assay: Inhibitory concentration against growth of L1210/R81 cell line; assay type: functional, cell-based; details: Mus musculus
# [7] = target: T1, Dihydrofolate reductase (Mus musculus, UniProt P00375)
# T1 sequence (P00375 whole entry): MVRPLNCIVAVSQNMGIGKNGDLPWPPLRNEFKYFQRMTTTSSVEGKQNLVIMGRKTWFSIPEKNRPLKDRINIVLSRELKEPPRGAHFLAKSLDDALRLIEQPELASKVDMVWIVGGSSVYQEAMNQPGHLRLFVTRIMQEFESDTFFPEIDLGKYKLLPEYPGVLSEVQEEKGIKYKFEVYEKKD
# Description: Inhibition of dihydrofolate reductase (DHFR) from murine leukemia cells
# [8] = Inhibition of FPGS from mouse liver in the presence of folic acid; assay type: functional
# [9] = system: SCC-25; assay: Inhibitory concentration against growth of SCC25/R1 cell line; assay type: functional, cell-based; details: Homo sapiens
# [10] = system: SCC-15; assay: Inhibitory concentration against growth of SCC15 cell line; assay type: functional, cell-based; details: Homo sapiens
# [11] = system: SCC-15; assay: Inhibitory concentration against growth of SCC15/R1 cell line; assay type: functional, cell-based; details: Homo sapiens
# [12] = system: SCC-25; assay: Inhibitory concentration against growth of SCC25 cell line; assay type: functional, cell-based; details: Homo sapiens
SMILES,IC50 [1] [µM],IC50 [6] [µM],IC50 [7] [µM],Ki [8] [µM],also measured
Nc1nc(N)c2nc(CNc3ccc(C(=O)NC(CCCNC(=O)c4ccccc4C(=O)O)C(=O)O)cc3)cnc2n1 (stereo not given),0.00075,–,–,–,IC50 [2]: 0.00096 µM; IC50 [3]: 0.0013 µM; IC50 [4]: 0.0011 µM; IC50 [5]: 0.004 µM
CC(=O)NCCCC(NC(=O)c1ccc(N(C=O)Cc2cnc3nc(N)nc(N)c3n2)cc1)C(=O)O (stereo not given),0.41,230,0.053,–,–
Nc1nc(N)c2nc(CNc3ccc(C(=O)NC(CCCNC(=O)c4ccccc4)C(=O)O)cc3)cnc2n1 (stereo not given),0.00089,17,0.027,> 100,–
Nc1nc(N)c2nc(CN(C=O)c3ccc(C(=O)NC(CCCNC(=O)c4ccccc4)C(=O)O)cc3)cnc2n1 (stereo not given),0.02,156,0.034,> 1000,–
Nc1nc(N)c2nc(CNc3ccc(C(=O)N[C@@H](CCCNC(=O)c4ccc(Cl)c(Cl)c4)C(=O)O)cc3)cnc2n1,0.032,–,0.045,–,–
NCCCC(NC(=O)c1ccc(NCc2cnc3nc(N)nc(N)c3n2)cc1)C(=O)O (stereo not given),–,–,–,0.15,–
Nc1nc(N)c2nc(CN(C=O)c3ccc(C(=O)NC(CCCNC(=O)CCC(=O)O)C(=O)O)cc3)cnc2n1 (stereo not given),–,–,–,> 100,–
Nc1nc(N)c2nc(CN(C=O)c3ccc(C(=O)NC(CCCNC(=O)c4ccc(Cl)cc4)C(=O)O)cc3)cnc2n1 (stereo not given),0.2,> 200,0.015,> 100,–
NCCCC(NC(=O)c1ccc(N(C=O)Cc2cnc3nc(N)nc(N)c3n2)cc1)C(=O)O (stereo not given),–,–,–,0.65,–
Nc1nc(N)c2nc(CN(C=O)c3ccc(C(=O)NC(CCCNC(=O)c4ccc(Cl)c(Cl)c4)C(=O)O)cc3)cnc2n1 (stereo not given),3.2,> 200,0.056,–,–
Nc1nc(N)c2nc(CNc3ccc(C(=O)NC(CCCNC(=O)CCC(=O)O)C(=O)O)cc3)cnc2n1 (stereo not given),–,–,–,44,–
CN(Cc1cnc2nc(N)nc(N)c2n1)c1ccc(C(=O)NC(CCC(=O)OC(C)(C)C)C(=O)O)cc1 (stereo not given),–,–,–,–,IC50 [2]: 0.4 µM; IC50 [3]: 0.78 µM; IC50 [4]: 0.6 µM; IC50 [5]: 1.3 µM
CC(=O)NCCCC(NC(=O)c1ccc(NCc2cnc3nc(N)nc(N)c3n2)cc1)C(=O)O (stereo not given),0.017,81,0.028,68,–
Nc1nc(N)c2nc(CNc3ccc(C(=O)NC(CCCNC(=O)c4ccc(Cl)cc4)C(=O)O)cc3)cnc2n1 (stereo not given),0.0032,27,0.028,–,–
CN(Cc1cnc2nc(N)nc(N)c2n1)c1ccc(C(=O)N[C@@H](CCC(=O)O)C(=O)O)cc1 [METHOTREXATE],–,200,–,–,IC50 [9]: 0.15 µM; IC50 [10]: 0.038 µM; IC50 [11]: 0.58 µM; IC50 [12]: 0.0075 µM

# — ChEMBL document CHEMBL1124148 (J Med Chem, 1988)
